Assay results taken from patent US10849897B2, “Pyridyl derivatives as bromodomain inhibitors” (GLAXOSMITHKLINE INTELLECTUAL PROPERTY (NO.2) LIMITED, priority 2017, dated 2020).

What was measured:
BRD4 BD2 = molecular target: T1, BRD4 BD2 (Homo sapiens, UniProt O60885, Y97A); assay: BRD4 BD2 TR-FRET competition assay; type: binding; settings: TR-FRET competition with Reference Compound X; read-out: pIC50 in the BRD4 BD2 assay (converted)
T1 construct: BRD4 (1-477) (Y97A) and (Y390A); made in house; host or cells: E. coli (pET15b vector)
Experimental: (§1) Bromodomain binding was assessed utilising a time resolved fluorescent resonance energy transfer (TR-FRET) competition assay. To enable this approach a known, high affinity, pan-BET interacting small molecule was labelled with Alexa Fluor® 647, which is a far-red-fluorescent dye (Reference Compound X). Reference Compound X acts as a reporter of bromodomain binding and is the acceptor fluorophore component of the TR-FRET pair. Europium chelate, conjugated to an anti-6*His antibody, was utilised as the donor fluorophore in the TR-FRET pair. The anti-6*His antibody binds selectively to a six Histidine purification epitope added to the amino-terminus of each of the BET tandem bromodomain protein constructs used in this study. A TR-FRET signal is generated when the donor and acceptor fluorophores are in close proximity, between 20-80 Å, which is enabled in this assay by binding of Reference Compound X to the bromodomain protein.
(§2) In order to generate a TR-FRET signal, donor fluorophore is excited by a laser at λ337 nm, which subsequently leads to emission at λ618 nm. If the acceptor fluorophore is in close proximity then energy transfer can occur, which leads to emission of Alexa Fluor® 647 at λ665 nm. In the presence of competitor compound, Reference Compound X can be displaced from binding to the bromodomain. If displacement occurs, the acceptor fluorophore is no longer in proximity to the donor fluorophore, which prevents fluorescent energy transfer and, subsequently, a loss of Alexa Fluor® 647 emission at λ665 nm.
(§3) The competition of the compounds of formula (I) with Reference Compound X for binding to the BET family (BRD2, BRD3, BRD4 and BRDT) was assessed using protein truncates spanning both bromodomain 1 (BD1) and bromodomain 2 (BD2). In order to monitor differential binding to either BD1 or BD2, single residue mutations of key tyrosines to alanine were made in the acetyl lysine binding pockets. To validate this approach, a double residue mutant tandem domain protein was produced for each of the BET family members. Utilising a Fluorescence Polarisation approach, binding affinities for each of the single and double mutants for Reference Compound X were determined. […] The affinities of the single mutated bromdomain tandem proteins for Reference Compound X were equi-potent with the corresponding non-mutated BET protein. […] In the TR-FRET competition assay, Reference Compound X is used at a concentration that is equivalent to the Kd for the non-mutated bromodomain, which ensures that no binding at the mutated bromodomain is detected.
(§4) Recombinant Human Bromodomains [(BRD2 (1-473) (Y113A) and (Y386A), BRD3 (1-435) (Y73A) and (Y348A) BRD4 (1-477) (Y97A) and (Y390A) and BRDT (1-397) (Y66A) and (Y309A)] were expressed in E. coli cells (in pET15b vector for BRD2/3/4 and in pET28a vector for BRDT) with a 6-His tag at the N-terminal. The His-tagged Bromodomain pellet was resuspended in 50 mM HEPES (pH 7.5), 300 mM NaCl, 10 mM imidazole & 1 μL/mL protease inhibitor cocktail and extracted from the E. coli cells using sonication and purified using a nickel sepharose high performance column, the proteins were washed and then eluted with a linear gradient of 0-500 mM imidazole with buffer 50 mM HEPES (pH 7.5), 150 mM NaCl, 500 mM imidazole, over 20 column volumes. Final purification was completed by Superdex 200 prep grade size exclusion column. Purified protein was stored at −80° C. in 20 mM HEPES pH 7.5 and 100 mM NaCl. Protein identity was confirmed by peptide mass fingerprinting and predicted molecular weight confirmed by mass spectrometry.
All assay components were dissolved in an assay buffer composing of 50 mM HEPES pH 7.4, 50 mM NaCl, 5% Glycerol, 1 mM DTT and 1 mM CHAPS. Reference Compound X was diluted, in assay buffer containing 20 nM single mutant, tandem bromodomain protein, to a concentration equivalent to 2*Kd for this bromodomain. […]

BRD4 BD1 and BRD4 BD2 = BRD4 BD1 and BRD4 BD2 TR-FRET assays (selectivity for BRD4 BD2 over BRD4 BD1); type: binding, Human; settings: for selectivity for BRD4 BD2 over BRD4 BD1: BRD4 BD2 pIC50 − BRD4 BD1 pIC50, in at least one of the TR-FRET assays
Experimental: as §1, §2, §3
as §4, with “Protein identity was confirmed by peptide mass fingerprinting and predicted molecular weight confirmed by mass spectrometry.” left out

[1] = test system: BET family (BRD2, BRD3, BRD4 and BRDT) tandem bromodomain proteins; assay: Fluorescence Polarisation binding of Reference Compound X to single and double mutant tandem BET proteins; parameters: species or system Human; settings: single residue (Tyr to Ala) mutants
Experimental: as §3, with “detected. […]” for “detected.”

| SMILES | IC50 (BRD4 BD2) [nM] | selectivity for BRD4 BD2 over BRD4 BD1 (BRD4 BD1 and BRD4 BD2) [log unit] | fold selective for BRD4 BD2 over BRD4 BD1 (BRD4 BD1 and BRD4 BD2; from the pIC50 difference) [fold] | affinity of single mutated bromodomain tandem proteins compared with corresponding non-mutated BET protein [1] |
| --- | --- | --- | --- | --- |
| CNC(=O)c1cc(C(=O)NCC(C)O)cc(Cc2ccccc2)n1 (racemic) [Example 61, (+/−)-6-Benzyl-N^4-(2-hydroxypropyl)-N^2-methylpyridine-2,4-dicarboxamide] | 1000 to 10000 | – | – | – |
| CNC(=O)c1cc(C(=O)Nc2cn[nH]c2)cc(C(OC)c2ccccc2)n1 (single isomer, unassigned) [Example 55, (S*)-6-(Methoxy(phenyl)methyl)-N^2-methyl-N^4-(1H-pyrazol-4-yl)pyridine-2,4-dicarboxamide] | 20 | 2.7 | – | – |
| CNC(=O)c1cc(C(=O)Nc2cnn(C)c2)cc(Cc2ccccc2)n1 [Example 11, 6-Benzyl-N^2-methyl-N^4-(1-methyl-1H-pyrazol-4-yl)pyridine-2,4-dicarboxamide] | 15.8 | 2.7 | – | – |
| CNC(=O)c1cc(C(=O)Nc2cn[nH]c2)cc(Cc2ccccc2)n1 [Example 12, 6-Benzyl-N^2-methyl-N^4-(1H-pyrazol-4-yl)pyridine-2,4-dicarboxamide] | 20 | 2.7 | – | – |
| CNC(=O)c1cc(C(=O)Nc2cn[nH]c2)cc([C@@H](C)c2ccccc2)n1 [Example 16, (S)-N^2-Methyl-6-(1-phenylethyl)-N^4-(1H-pyrazol-4-yl)pyridine-2,4-dicarboxamide] | 10 | 3.0 | 1000 | – |
| CNC(=O)c1cc(C(=O)NCCOC)cc(Cc2cccc(OC)c2)n1 [Example 59, 6-(3-Methoxybenzyl)-N^4-(2-methoxyethyl)-N^2-methylpyridine-2,4-dicarboxamide] | 1000 to 10000 | – | – | – |
| CNC(=O)c1cc(C(=O)NC(C)(C)C)cc(Cc2ccccc2)n1 [Example 66, 6-Benzyl-N^4-(tert-butyl)-N^2-methylpyridine-2,4-dicarboxamide] | 1000 to 10000 | – | – | – |
| CNC(=O)c1cc(C(=O)Nc2nc(C)no2)cc([C@@H](C)c2ccccc2)n1 [Example 74, (S)-N^2-Methyl-N^4-(3-methyl-1,2,4-oxadiazol-5-yl)-6-(1-phenylethyl)pyridine-2,4-dicarboxamide] | 1000 to 10000 | – | – | – |
| CNC(=O)c1cc(C(=O)Nc2nnc(C)o2)cc([C@@H](C)c2ccccc2)n1 [Example 75, (S)-N^2-Methyl-N^4-(5-methyl-1,3,4-oxadiazol-2-yl)-6-(1-phenylethyl)pyridine-2,4-dicarboxamide] | 1000 to 10000 | – | – | – |
| CNC(=O)c1cc(C(=O)Nc2nncn2C)cc([C@@H](C)c2ccccc2)n1 [Example 76, (S)-N^2-Methyl-N^4-(4-methyl-4H-1,2,4-triazol-3-yl)-6-(1-phenylethyl)pyridine-2,4-dicarboxamide] | 1000 to 10000 | – | – | – |
| COc1ccc2c(c1)C(c1ccc(Cl)cc1)=N[C@@H](CC(=O)NCCCCCNC(=O)CCCCCC1(C)/C(=C/C=C/C=C/C3=[N+](CCCCS(=O)(=O)O)c4ccc(S(=O)(=O)O)cc4C3(C)C)N(CCCCS(=O)(=O)[O-])c3ccc(S(=O)(=O)O)cc31)c1nnc(C)n1-2 (stereo partly shown) [Reference Compound X] | – | – | – | equi-potent |
